Data: ChEMBL document CHEMBL1201862, “PubChem BioAssay data set” (2004)
The source made the active and inactive calls.

Tests used:
Paired box protein Pax-8 = Paired box protein Pax-8 (Homo sapiens, UniProt Q06710); experiment: PAX8 transcriptional activity inhibition in RMG-I – RMG-I cells, luciferase, cherry-pick, dose response (AID 687027); assay type: functional, cell-based;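 further: luciferase reporter driven by Pax8 target thyroperoxidase promoter measured by SteadyGlo luminescence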
Vero [1] = experiment: cells; assay type: functional, cell-based; settings: Chlorocebus sabaeus
Galanin receptor type 3 = target: T1, Galanin receptor type 3 (Homo sapiens, UniProt O60755); experiment: Fluorescence-based cell-based primary high throughput dose response assay to identify antagonists of the Galanin Receptor 3 (GalR3).; assay type: functional
T1 sequence (O60755 whole entry): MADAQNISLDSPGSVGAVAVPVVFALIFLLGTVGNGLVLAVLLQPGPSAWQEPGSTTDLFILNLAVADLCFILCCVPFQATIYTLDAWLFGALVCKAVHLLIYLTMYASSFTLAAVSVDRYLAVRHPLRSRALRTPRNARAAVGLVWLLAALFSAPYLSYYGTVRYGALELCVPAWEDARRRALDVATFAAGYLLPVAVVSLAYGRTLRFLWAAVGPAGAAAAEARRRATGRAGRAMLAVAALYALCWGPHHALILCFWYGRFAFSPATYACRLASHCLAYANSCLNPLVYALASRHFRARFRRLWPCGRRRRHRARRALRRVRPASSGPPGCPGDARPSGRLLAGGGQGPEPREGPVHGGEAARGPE

cells [2] = assay type: functional, cell-based; settings: HEK-CNG
Vero [3] = experiment: cells; assay type: functional; settings: Chlorocebus sabaeus
Cytochrome P450 2D6 [4] = target: T2, Cytochrome P450 2D6 (Homo sapiens, UniProt P10635);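 further: CYP2D6 member of a cytochrome P450 panel assay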
Cytochrome P450 1A2 = target: T3, Cytochrome P450 1A2 (Homo sapiens, UniProt P05177);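 further: PubChem cytochrome P450 panel assay, CYP1A2 panel member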
T3 sequence (P05177 whole entry): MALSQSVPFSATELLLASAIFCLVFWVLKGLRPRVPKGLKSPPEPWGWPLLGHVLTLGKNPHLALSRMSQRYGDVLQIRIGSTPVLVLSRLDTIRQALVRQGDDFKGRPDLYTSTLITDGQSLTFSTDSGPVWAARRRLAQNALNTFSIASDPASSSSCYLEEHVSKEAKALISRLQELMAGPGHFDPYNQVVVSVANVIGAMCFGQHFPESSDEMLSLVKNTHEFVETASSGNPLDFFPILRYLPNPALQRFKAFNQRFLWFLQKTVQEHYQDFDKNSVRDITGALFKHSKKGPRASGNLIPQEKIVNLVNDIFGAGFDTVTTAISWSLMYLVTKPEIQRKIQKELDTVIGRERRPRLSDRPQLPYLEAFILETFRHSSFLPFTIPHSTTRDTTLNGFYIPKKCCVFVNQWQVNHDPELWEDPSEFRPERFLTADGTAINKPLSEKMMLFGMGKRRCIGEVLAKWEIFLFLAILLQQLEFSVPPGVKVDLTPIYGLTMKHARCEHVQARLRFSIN

Cytochrome P450 2D6 [5] = target: T2, Cytochrome P450 2D6; remark: listed apart in the source
HEK293 [6] = experiment: cells; settings: Homo sapiens
HEK293 [7] = experiment: cells; settings: Homo sapiens; remark: listed apart in the source
[8] = loss of viability in HepG2 cells – cell-based, CellTiter-Glo, cherry-picked, cytotoxicity control for Shn3 inhibitor project, dose response (AID 624134); assay type: functional
[9] = reduction of Shn3 3'UTR-driven luciferase in osteoblasts – cell-based, Clone20 osteoblasts, firefly luciferase, cherry-picked, dose response (AID 624132); assay type: functional;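 further: firefly luciferase luminescence from reporter carrying the Shn3 3'UTR in osteoblasts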
[10] = non-specific 3'UTR reporter inhibition in Clone20-Shn3RL – cell-based, Renilla luciferase, cherry-picked, counter-screen for Shn3 inhibitor project, dose response (AID 624133); assay type: functional
BJ [11] = experiment: BJ-TERT-LT-ST fibroblast viability loss – cell-based, RAS-independent, luminescence, dose response (AID 1935); assay type: functional; settings: Homo sapiens;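 further: BJ fibroblasts immortalized with TERT plus LT and ST oncogenes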
INS1 = experiment: INS-1E survival protection against cytokine death – cell-based, luminescence, retest, dose response (AID 449756); assay type: functional; settings: Rattus norvegicus;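 further: cell death triggered by IL-1 beta plus TNF-alpha plus IFN-gamma mixture; protective hits raise ATP signal compared with cytokine alone wells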
[12] = target: T4, Intestinal-type alkaline phosphatase (Homo sapiens, UniProt P09923); experiment: human intestinal alkaline phosphatase activators, dose response, biochemical, luminescence, uHTS hits (AID 463120); assay type: functional
BJ [13] = experiment: growth inhibition of engineered Ras-driven BJ cells – cell-based, alamar blue fluorescence, cherrypicked samples, dose response (AID 2631); assay type: functional; settings: Homo sapiens;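 further: confirmatory dose-response assay in RAS-dependent BJ fibroblasts engineered with TERT, LT and ST, with cytotoxicity read by fluorescence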
[14] = target: T5, Alkaline phosphatase, tissue-nonspecific isozyme (Homo sapiens, UniProt P05186); experiment: activation of tissue-nonspecific alkaline phosphatase – biochemical, TNAP isozyme, human IAP uHTS hits, selectivity assay for human IAP activator project, dose response (AID 488886); assay type: functional;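 further: potency of compounds raising TNAP activity as a selectivity check on IAP activators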
T5 sequence (P05186 whole entry): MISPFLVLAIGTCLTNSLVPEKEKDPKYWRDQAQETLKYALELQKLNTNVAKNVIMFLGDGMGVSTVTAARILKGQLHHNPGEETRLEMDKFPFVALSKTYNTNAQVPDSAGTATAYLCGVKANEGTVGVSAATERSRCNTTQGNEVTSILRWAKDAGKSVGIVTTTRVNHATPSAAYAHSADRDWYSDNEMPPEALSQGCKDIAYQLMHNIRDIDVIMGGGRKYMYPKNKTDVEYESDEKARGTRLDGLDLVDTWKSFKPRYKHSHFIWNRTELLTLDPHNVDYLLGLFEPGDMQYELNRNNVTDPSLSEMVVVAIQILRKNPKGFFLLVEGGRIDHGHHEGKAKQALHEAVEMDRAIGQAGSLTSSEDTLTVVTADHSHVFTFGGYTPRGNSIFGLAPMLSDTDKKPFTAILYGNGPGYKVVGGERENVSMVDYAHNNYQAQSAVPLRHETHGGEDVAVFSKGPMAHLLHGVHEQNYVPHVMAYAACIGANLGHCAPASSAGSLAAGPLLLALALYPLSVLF

[15] = NIH-3T3 fibroblast cytotoxicity, dose response, cytotoxicity control, cell-based, fluorescence, Alamar Blue, secondary assay (AID 2327); assay type: functional;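 further: NIH-3T3 mouse fibroblasts cultured with fluconazole at 8 µg/mL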
cells [16] = assay type: functional, cell-based
[17] = target: T4, Intestinal-type alkaline phosphatase; experiment: activation of human intestinal alkaline phosphatase – biochemical, luminescent, uHTS hits, set 2, dose response (AID 488817); assay type: functional;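 further: potency of activators that raise enzyme activity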
[18] = DRD fibroblast viability loss – cell-based, non-viral oncogenic, luminescence, dose response (AID 1934); assay type: functional; settings: Homo sapiens
[19] = HEK-293T viability loss after treatment – luminescence, T-cell screen hits, cytotoxicity control for TCR NF-kB inhibitor project, dose response (AID 489026); assay type: functional, cell-based;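 further: cells exposed to compound about 14 hours before the viability readout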
cells [20] = assay type: functional, cell-based; remark: listed apart in the source
[21] = fluconazole-exposed Candida albicans growth modulators – fluorescence, retest, confirmation (AID 2467); assay type: functional, cell-based
BJ [22] = experiment: cells; assay type: functional, cell-based; settings: Homo sapiens
[23] = target: Intestinal-type alkaline phosphatase (Mus musculus, UniProt P24822); experiment: PubChem AID 488874; assay type: functional
BJ [24] = experiment: BJ-TERT fibroblast viability loss – cell-based, RAS-independent, luminescence, dose response (AID 1933); assay type: functional; settings: Homo sapiens
Mu-type opioid receptor = Mu-type opioid receptor (Homo sapiens, UniProt P35372); experiment: (§1) Counterscreen for agonists of heterodimerization of the mu 1 (OPRM1) and delta 1 (OPRD1) opioid receptors: Luminescence-based cell-based high throughput dose response assay to identify agonists of OPRM1 homodimerization.; assay type: functional
[25] = target: 5-hydroxytryptamine receptor 5A (Homo sapiens, UniProt P47898); experiment: Counterscreen for agonists of OPRM1-OPRD1 heterodimerization: luminescence-based cell-based high throughput dose response assay to identify agonists of 5-hydroxytryptamine (serotonin) 5A receptor (HTR5A). [Related pubchem assays (depositor defined):AID504326, AID504355, AID504692, AID504904, AID504905]; assay type: functional
[26] = target: T6, Short transient receptor potential channel 4 (Mus musculus, UniProt Q9QUQ5); experiment: calcium entry via TRPC4 opening agents – cell-based, HEK293 TRPC4/mu-opioid, Fluo-4 calcium, dose response (AID 434937); assay type: functional
T6 sequence (Q9QUQ5 whole entry): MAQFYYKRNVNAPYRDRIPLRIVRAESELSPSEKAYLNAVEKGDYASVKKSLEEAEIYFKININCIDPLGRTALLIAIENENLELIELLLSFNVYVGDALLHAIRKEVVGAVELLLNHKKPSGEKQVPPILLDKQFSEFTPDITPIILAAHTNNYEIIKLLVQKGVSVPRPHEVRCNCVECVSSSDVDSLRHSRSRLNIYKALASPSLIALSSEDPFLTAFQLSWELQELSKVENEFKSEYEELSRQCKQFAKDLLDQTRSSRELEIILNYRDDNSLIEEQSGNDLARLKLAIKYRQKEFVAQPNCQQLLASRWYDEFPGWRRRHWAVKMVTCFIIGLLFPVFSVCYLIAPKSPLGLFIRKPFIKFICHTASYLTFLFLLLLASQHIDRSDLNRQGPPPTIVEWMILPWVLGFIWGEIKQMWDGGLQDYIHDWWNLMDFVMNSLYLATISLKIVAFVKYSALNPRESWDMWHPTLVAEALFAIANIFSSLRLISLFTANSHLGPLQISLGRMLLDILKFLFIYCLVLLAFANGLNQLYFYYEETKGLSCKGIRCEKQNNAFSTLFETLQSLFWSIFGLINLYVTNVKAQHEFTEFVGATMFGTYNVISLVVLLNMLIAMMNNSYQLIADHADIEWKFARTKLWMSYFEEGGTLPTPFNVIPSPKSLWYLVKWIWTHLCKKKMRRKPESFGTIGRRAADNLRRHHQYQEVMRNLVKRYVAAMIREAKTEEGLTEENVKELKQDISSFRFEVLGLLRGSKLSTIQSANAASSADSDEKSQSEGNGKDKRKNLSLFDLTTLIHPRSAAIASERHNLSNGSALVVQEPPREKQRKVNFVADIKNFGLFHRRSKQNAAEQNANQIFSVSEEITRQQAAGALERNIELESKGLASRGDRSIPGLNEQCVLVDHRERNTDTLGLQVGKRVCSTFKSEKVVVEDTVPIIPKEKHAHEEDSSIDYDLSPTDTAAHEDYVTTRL

[27] = target: Delta-type opioid receptor (Homo sapiens, UniProt P41143); experiment: as §1, with “of OPRD1” for “of OPRM1”, “homodimerization. [Related pubchem assays (depositor defined):AID504326, AID504355, AID504692, AID504904, AID504905]” for “homodimerization.”; assay type: functional
Delta-type opioid receptor, sequence (P41143 whole entry): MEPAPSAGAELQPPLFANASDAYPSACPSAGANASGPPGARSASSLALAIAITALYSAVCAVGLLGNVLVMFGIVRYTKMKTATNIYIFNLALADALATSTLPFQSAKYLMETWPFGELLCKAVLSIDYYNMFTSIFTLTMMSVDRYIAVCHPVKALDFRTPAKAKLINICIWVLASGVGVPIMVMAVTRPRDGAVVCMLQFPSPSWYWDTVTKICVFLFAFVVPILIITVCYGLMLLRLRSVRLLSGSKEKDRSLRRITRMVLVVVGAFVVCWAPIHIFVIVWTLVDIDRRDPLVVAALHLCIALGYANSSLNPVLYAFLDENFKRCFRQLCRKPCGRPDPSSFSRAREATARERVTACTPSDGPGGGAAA

T4 sequence (P09923 whole entry): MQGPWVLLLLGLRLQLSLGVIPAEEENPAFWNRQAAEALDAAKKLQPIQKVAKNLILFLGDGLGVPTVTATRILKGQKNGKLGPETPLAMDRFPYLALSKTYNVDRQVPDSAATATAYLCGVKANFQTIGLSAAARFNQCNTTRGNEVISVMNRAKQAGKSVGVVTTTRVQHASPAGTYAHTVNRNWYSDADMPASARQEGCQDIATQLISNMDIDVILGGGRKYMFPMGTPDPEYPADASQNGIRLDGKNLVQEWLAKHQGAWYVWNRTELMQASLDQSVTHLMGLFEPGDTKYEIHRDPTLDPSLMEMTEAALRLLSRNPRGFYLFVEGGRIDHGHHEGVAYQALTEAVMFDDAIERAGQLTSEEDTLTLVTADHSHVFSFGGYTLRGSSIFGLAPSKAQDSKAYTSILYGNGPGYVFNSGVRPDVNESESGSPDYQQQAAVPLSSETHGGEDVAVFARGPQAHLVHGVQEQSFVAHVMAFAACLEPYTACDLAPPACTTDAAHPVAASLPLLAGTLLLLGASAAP
T2 sequence (P10635 whole entry): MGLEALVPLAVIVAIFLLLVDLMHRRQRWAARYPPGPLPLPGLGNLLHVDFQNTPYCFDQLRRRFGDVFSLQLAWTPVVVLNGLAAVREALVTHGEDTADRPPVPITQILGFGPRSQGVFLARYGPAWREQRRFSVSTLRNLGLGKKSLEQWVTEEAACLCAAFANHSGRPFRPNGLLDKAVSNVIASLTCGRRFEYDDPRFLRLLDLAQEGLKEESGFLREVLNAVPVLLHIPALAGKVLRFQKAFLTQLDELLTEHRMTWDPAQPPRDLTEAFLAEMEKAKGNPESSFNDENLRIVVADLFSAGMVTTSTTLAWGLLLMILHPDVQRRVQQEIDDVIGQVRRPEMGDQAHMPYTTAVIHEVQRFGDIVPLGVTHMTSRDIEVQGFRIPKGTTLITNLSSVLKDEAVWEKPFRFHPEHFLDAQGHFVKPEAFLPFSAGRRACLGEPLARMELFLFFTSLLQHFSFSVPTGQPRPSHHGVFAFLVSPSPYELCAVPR
Intestinal-type alkaline phosphatase (Mus musculus, UniProt P24822), sequence (P24822 whole entry): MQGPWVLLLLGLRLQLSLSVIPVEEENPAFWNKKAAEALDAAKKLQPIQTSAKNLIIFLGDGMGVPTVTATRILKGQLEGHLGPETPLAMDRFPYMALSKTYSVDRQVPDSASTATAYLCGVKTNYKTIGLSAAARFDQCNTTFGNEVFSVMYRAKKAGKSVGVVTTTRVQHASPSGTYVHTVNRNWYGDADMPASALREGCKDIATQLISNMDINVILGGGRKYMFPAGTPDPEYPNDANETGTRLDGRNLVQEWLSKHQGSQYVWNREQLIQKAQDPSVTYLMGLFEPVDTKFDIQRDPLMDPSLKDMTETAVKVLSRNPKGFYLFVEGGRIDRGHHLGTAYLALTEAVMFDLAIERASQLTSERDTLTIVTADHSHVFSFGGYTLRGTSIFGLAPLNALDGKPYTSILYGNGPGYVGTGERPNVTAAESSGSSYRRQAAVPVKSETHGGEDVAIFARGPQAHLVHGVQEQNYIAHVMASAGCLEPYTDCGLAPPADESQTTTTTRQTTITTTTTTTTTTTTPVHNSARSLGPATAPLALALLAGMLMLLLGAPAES
Mu-type opioid receptor, sequence (P35372 whole entry): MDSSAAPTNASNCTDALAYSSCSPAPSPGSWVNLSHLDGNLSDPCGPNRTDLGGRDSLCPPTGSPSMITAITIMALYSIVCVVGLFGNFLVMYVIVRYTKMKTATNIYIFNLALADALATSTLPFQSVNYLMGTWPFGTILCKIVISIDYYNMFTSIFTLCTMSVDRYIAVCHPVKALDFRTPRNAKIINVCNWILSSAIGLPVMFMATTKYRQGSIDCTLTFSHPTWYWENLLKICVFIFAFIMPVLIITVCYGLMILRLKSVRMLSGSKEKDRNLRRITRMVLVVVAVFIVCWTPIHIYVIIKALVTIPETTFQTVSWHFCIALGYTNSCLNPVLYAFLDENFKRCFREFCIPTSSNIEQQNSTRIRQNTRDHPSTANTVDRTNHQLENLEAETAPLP
5-hydroxytryptamine receptor 5A, sequence (P47898 whole entry): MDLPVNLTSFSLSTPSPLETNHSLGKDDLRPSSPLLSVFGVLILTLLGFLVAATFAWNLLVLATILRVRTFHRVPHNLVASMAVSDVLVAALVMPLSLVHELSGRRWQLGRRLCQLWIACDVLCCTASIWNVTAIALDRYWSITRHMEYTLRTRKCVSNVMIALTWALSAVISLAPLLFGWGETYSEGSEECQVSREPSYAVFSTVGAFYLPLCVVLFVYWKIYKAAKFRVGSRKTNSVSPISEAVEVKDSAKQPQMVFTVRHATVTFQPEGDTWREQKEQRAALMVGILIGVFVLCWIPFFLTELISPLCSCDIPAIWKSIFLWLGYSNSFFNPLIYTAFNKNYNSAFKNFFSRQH
Paired box protein Pax-8, sequence (Q06710 whole entry): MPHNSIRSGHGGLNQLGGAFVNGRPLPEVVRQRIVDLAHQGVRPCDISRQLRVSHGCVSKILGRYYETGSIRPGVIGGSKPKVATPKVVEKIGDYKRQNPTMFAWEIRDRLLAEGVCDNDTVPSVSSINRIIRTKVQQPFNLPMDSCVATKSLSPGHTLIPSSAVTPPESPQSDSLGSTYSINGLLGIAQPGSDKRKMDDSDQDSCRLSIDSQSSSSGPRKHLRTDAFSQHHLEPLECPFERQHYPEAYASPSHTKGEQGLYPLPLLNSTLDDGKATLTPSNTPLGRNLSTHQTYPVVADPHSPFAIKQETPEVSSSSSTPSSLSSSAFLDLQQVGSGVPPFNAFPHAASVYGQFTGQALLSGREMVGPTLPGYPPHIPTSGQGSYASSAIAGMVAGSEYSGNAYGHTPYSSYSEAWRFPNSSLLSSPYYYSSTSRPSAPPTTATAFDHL

## C[C@]12CC[C@H]3[C@@H](CC[C@@]4(O)C[C@@H](O)CC[C@]34C=O)[C@]1(O)CC[C@@H]2C1=CC(=O)OC1
Paired box protein Pax-8
  AC50: 3.39 µM (active)
Vero [1]
  IC50: < 0.05 µM (active)
Galanin receptor type 3
  IC50: > 29.9 µM (inactive)
Cells [2]
  EC50: > 29.9 µM (inactive)
Vero [3]
  CC50: 1.65 µM (active)

## COc1cccc2c1C(=O)c1c(O)c3c(c(O)c1C2=O)C[C@](O)(C(C)=O)C[C@H]3O[C@@H]1C[C@H](N)[C@H](O)[C@H](C)O1
Cytochrome P450 2D6 [4]
  AC50: inactive
Cytochrome P450 1A2
  AC50: inactive

## C=CCn1c(SC(C)C(=O)NCc2ccc3c(c2)OCO3)nc2scc(-c3ccccc3)c2c1=O (centres undefined)
Cytochrome P450 2D6 [5]
  AC50: 3.16 µM (inconclusive)
HEK293 [6]
  EC50: > 59.7 µM (inactive)
HEK293 [7]
  EC50: > 59.7 µM (inactive)

## CCCCn1c(-c2nonc2NC(=O)c2ccccc2Cl)nc2ccccc21
Vero [1]
  IC50: 0.73 µM (active)
[8]
  AC50: > 70 µM (inactive)
[9]
  AC50: 1.39 µM (active)
[10]
  AC50: 1.11 µM (active)
Vero [3]
  CC50: 11.8 µM (active)

## CCN(CC)c1ccc(/C=N/NC(=O)c2nnn(-c3nonc3N)c2C(C)C)c(O)c1
BJ [11]
  EC50: 6.05 µM (inconclusive)
INS1
  AC50: < 0.195 µM (active)
[12]
  EC50: 10.5 µM (active)
BJ [13]
  EC50: 0.199 µM (active)
[14]
  EC50: 19 µM (active)
[15]
  EC50: 4 µM (active)
Cells [16]
  EC50: 5.38 µM (active)
[17]
  EC50: 20.6 µM (active)
[18]
  EC50: 8.09 µM (inconclusive)
[19]
  IC50: > 80 µM (inactive)
Cells [20]
  EC50: > 350 µM (not active)
[21]
  EC50: 0.401 µM (active)
BJ [22]
  EC50: 2.83 µM (active)
[23]
  IC50: 78 µM (active)
BJ [24]
  EC50: 7.4 µM (inconclusive)

## CCCC(=O)NC(C)C(c1cccs1)N1CCN(c2ccccc2)CC1 (centres undefined)
Mu-type opioid receptor
  EC50: > 92.5 µM (inactive)
[25]
  EC50: > 92.5 µM (inactive)
[26]
  EC50: 0.267 µM (active)
[27]
  EC50: > 92.5 µM (inactive)
